Reference: PubChem BioAssay (NCI)
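Where inhibition never reached the appropriate level, the endpoint shown equals the highest concentration tested. Otherwise, values were interpolated linearly from a five-concentration, 48-hour dose response in 96-well plates. TGI denotes the concentration required for complete inhibition of growth.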

Experiments:
Experiment in all cases: NCI tumour cell line growth inhibition, 48 h
UACC-62 melanoma = test system: UACC-62 melanoma
DMS 273 small cell lung = test system: DMS 273 small cell lung
XF 498 CNS = test system: XF 498 CNS
OVCAR-5 ovarian = test system: OVCAR-5 ovarian
SNB-78 CNS = test system: SNB-78 CNS
SK-MEL-5 melanoma = test system: SK-MEL-5 melanoma
MOLT-4 leukemia = test system: MOLT-4 leukemia
DLD-1 colon = test system: DLD-1 colon
K-562 leukemia = test system: K-562 leukemia
DU-145 prostate = test system: DU-145 prostate

SMILES	TGI (UACC-62 melanoma)	TGI (DMS 273 small cell lung)	TGI (XF 498 CNS)	TGI (OVCAR-5 ovarian)	TGI (SNB-78 CNS)	TGI (SK-MEL-5 melanoma)	TGI (MOLT-4 leukemia)	TGI (DLD-1 colon)	TGI (K-562 leukemia)	TGI (DU-145 prostate)
O=C1C2Nc3ccccc3SC2C(=O)N1c1ccc(Br)cc1 (stereo unspecified)	> 100 µM	> 100 µM	> 100 µM	> 100 µM	99.1 µM	55.3 µM	> 100 µM	> 100 µM	> 100 µM	
CC(C)OP(=O)(OC(C)C)/C(Cl)=N/Nc1ccc([N+](=O)[O-])cc1	> 100 µM	> 100 µM	> 100 µM	> 100 µM	> 100 µM	> 100 µM	> 100 µM	> 100 µM	> 100 µM	
O=C(NCCCCCCCCCCCCNC(=O)c1cccc2ccccc12)c1cccc2ccccc12	> 100 µM	> 100 µM	> 75.8 µM	> 100 µM	> 82.3 µM	> 100 µM	> 100 µM	> 100 µM	> 100 µM	
C/C(=C1/N=C(c2cc([N+](=O)[O-])ccc2Cl)N(c2cccc(C)c2)C1=O)c1cc2ccccc2oc1=O	> 100 µM	> 100 µM	81.2 µM	> 100 µM	> 100 µM	53.8 µM	> 100 µM	> 100 µM	> 100 µM	
CC(=O)O[C@H]1C(=O)[C@@]2(C)C(C(OC(=O)c3ccccc3)[C@]3(O)C[C@H](OC(=O)C(OC(=O)CCCC(=O)NCCCN(C)C)C(NC(=O)c4ccccc4)c4ccccc4)C(C)=C1C3(C)C)C1(OC(C)=O)COC1C[C@@H]2O (stereo partly specified)	7 µM	0.553 µM	< 0.0171 µM	13.1 µM	96.8 µM	18.6 µM	12.5 µM	> 40.9 µM	45.4 µM	0.0666 µM
